This is an account of results in US6110897A, “Antiinflammatory cell adhesion inhibitors” (Glycorex AB, priority 1997, dated 2000).

Where two headings read alike, the source gives them in different places.

Assay [1] deals with E-selectin-IgG fusion protein. Put plainly: Inhibition of HL60 cell adhesion to recombinant E-selectin-IgG fusion protein. It is filed as cell-based, human. As to the method:
(§1) These recombinant proteins contain the signal sequence, the lectin-like domain, the EGF (epidermal growth factor) repeat domain and six (E-selectin) and two (P-selectin) of the CR-like (complement regulatory) domains. […] Adhesion of labelled HL60 tumor cells was quantitatively measured in a cytofluoro-meter. The specific cell binding in the presence of inhibitors (I) was calculated compared with nonspecific binding to the CD4-IgG fusion protein. […] Genetic constructs for expression of extracellular portions of the human selectins E and P, joined to human immunoglobulin heavy chain hinge, CH2 and CH3 regions were obtained from B. Seed, Massachusetts General Hospital, Boston, U.S.A. […] CD4-IgG served as a negative control. Recombinant proteins were expressed as soluble proteins after DEAE/dextran facilitated plasmid DNA trans-fection into COS cells according to standard procedures. […] After washing with PBS, plates were blocked for 0.5 h with 150 μl/well of 1% BSA in PBS. […] After one PBS wash, 40 μl/well binding buffer (50 mM Hepes, pH 7.5, 100 mM NaCl, 100 μM MgCl2. 100 μM MnCl2, 100 μM CaCl2, 1 mg/ml BSA) were added together with test compounds or antibodies (see below). Parallel to the preparation of the plates, HL60 cells, grown in DMEM medium with 20% FCS, were washed two times with PBS before incubation for 20 min in Fc-receptor blocking buffer at RT. […] The amount of bound cells was quantitated in a cytofluorometer (CytoFluor 2300, Millipore, Bedford, U.S.A.). Specific cell binding was calculated by subtraction of the signals in wells coated with CD4-IgG (nonspecific binding) from the signals in wells coated with selectin-IgG. […] IC50 values were determined according to the four parameter logistics model. Each IC50 determination was repeated on another day at least once.

Assay [2] deals with T1, P-selectin-IgG fusion protein (Homo sapiens, UniProt P16109).
T1 construct: the lectin-like domain, the EGF repeat domain and six (E-selectin) and two (P-selectin) of the complement regulatory-like domains; made in house; host or cells: COS cells (DEAE/dextran plasmid transfection; culture supernatant; genetic constructs from B. Seed, Massachusetts General Hospital)
T1 sequence (P16109 with tags, fused parts or gaps limits assumed): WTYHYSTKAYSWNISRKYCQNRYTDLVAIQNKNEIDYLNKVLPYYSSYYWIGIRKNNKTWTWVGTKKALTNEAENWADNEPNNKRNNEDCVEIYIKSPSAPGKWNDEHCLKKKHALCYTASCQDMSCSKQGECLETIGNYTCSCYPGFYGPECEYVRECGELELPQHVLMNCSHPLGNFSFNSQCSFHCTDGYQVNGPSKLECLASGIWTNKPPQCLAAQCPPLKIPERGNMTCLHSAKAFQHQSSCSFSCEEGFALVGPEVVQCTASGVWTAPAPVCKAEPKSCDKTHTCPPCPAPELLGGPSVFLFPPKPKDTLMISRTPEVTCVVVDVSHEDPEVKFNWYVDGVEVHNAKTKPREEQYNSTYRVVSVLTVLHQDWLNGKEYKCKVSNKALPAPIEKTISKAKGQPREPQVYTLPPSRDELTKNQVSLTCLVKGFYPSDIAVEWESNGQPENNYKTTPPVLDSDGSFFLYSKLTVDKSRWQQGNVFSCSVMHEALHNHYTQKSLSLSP
As to the kind of experiment: Inhibition of HL60 cell adhesion to recombinant P-selectin-IgG fusion protein. It is filed as cell-based. Particulars: for IC50: concentration to block adhesion of 50% of HL60 cells compared with negative control. As to the method:
as §1

For another assay, the system named is E- and P-selectins. As to the kind of experiment: Selectin cell adhesion assays, E- and P-selectin taken together (statements in words). Format: cell-based, human. The following applies: removal of the acetamido or acetyl group, compared with II-1. An excerpt:
Primary assays for investigation of the action of compounds (I) on cell adhesion to recombinant soluble selectin fusion proteins:
The preparation of soluble E- and P-selectin-IgG fusion proteins, composed of the extracellular portions of human selectins E and P and the human immunoglobulin (IgG) heavy chain hinge, CH2 and CH3 regions, has been described in Cell 1991, 67, 35. These recombinant proteins contain the signal sequence, the lectin-like domain, the EGF (epidermal growth factor) repeat domain and six (E-selectin) and two (P-selectin) of the CR-like (complement regulatory) domains. […] Adhesion of labelled HL60 tumor cells was quantitatively measured in a cytofluoro-meter. The specific cell binding in the presence of inhibitors (I) was calculated compared with nonspecific binding to the CD4-IgG fusion protein.
The activity of compounds (I), (II) and (III) was measured in adhesion assays as the inhibition of the binding of promyelocytic leukemia HL60 cells (ATCC CRL 1964) to recombinant solid phase bound selectin-fusion proteins. […] Recombinant proteins were expressed as soluble proteins after DEAE/dextran facilitated plasmid DNA trans-fection into COS cells according to standard procedures. […] The amount of bound cells was quantitated in a cytofluorometer (CytoFluor 2300, Millipore, Bedford, U.S.A.). […]

Another assay deals with E-selectin-Ig. The following applies: cited from earlier work.
Setting [3] is: concentration to block adhesion of 50% of HL60 cells compared with negative control; read-out: E-selectin IC50.

Regarding `CC1OC(OC2C(N)C(OCCCCCCN)OC(CO)C2OC2OC(CO)C(O)C(OC3(C(=O)O)CC(O)C(N)C(C(O)C(O)CO)O3)C2O)C(O)C(O)C1O` [Compound I-1, 2-Amino-4-O-[3-O-[5-amino-3,5-dideoxy-D-glycero-α-D-galactononulopyranosyl]-β-D-galactopyranosyl]-1-[6-aminohexyl]-2-deoxy-3-O-[α-L-fucopyranosyl]-β-D-glycopyranose], the “improvement of the E-selectin IC50 over II-1” value in assay [1] (I-1 over reference compound II-1) is “significant improvement”. For the same compound, the values for the IC50 in assay [1] (read-out: E-selectin IC50; concentration to block adhesion of 50% of HL60 cells compared with negative control) and in assay [2] were 270 µM and 160 µM, respectively. The “enhancement of binding affinity to P-selectin (factor)” value in assay [2] (fully deacetylated I-1 compared with II-1) is given as 12.5.
In the case of `CC(=O)NC1C(O)CC(OC2C(O)C(CO)OC(OC3C(CO)OC(OCCCCCCN)C(NC(C)=O)C3OC3OC(C)C(O)C(O)C3O)C2O)(C(=O)O)OC1C(O)C(O)CO` (centres unmarked) [II-1], the IC50 in assay [1] (setting [3]) came to 1000 µM; in assay [2] it was 2000 µM.
Consider `CC(=O)NC1C(OCCCCCCN)OC(CO)C(OC2OC(CO)C(O)C(OC3(C(=O)O)CC(O)CC(C(O)C(O)CO)O3)C2O)C1OC1OC(C)C(O)C(O)C1O` (centres unmarked) [III-1], for which, in the assay on E- and P-selectins, the “inhibitory potency relative to II-1” value is listed as “only slightly improved”. In addition, the IC50 in assay [1] (setting [3]) and in assay [2] was 700 µM in each case.
As to `CC(=O)NC1C(OCCCCCCN)OC(CO)C(OC2OC(CO)C(O)C(OC3(C(=O)O)CC(O)C(N)C(C(O)C(O)CO)O3)C2O)C1OC1OC(C)C(O)C(O)C1O` (centres unmarked) [III-2], the “inhibitory potency relative to II-1” value with E- and P-selectins is listed as “only slightly improved”. Moreover, the values for the IC50 in assay [1] (setting [3]) and in assay [2] were 900 µM and 1000 µM, respectively.
As for `CC(=O)NC1C(O)CC(OC2C(O)C(CO)OC(OC3C(CO)OC(O)C(N)C3OC3OC(C)C(O)C(O)C3O)C2O)(C(=O)O)OC1C(O)C(O)CO` (centres unmarked) [sLe^X (GlcNH2)], the “enhanced inhibitory potency compared to sLe^X (fold)” value in the assay with E-selectin-Ig (cell-free ELISA, E-selectin-Ig competitive binding) is given as 5 fold. Further, the IC50 in the assay on E-selectin-Ig (cell-free system, read-out: IC50, E-selectin-Ig competitive binding) was 77 µM.
